In ChEMBL document CHEMBL1201862, “PubChem BioAssay data set” (2004):
One block for each molecule: values may come before it. The source made the active and inactive calls.

Tests used:
[1] = viability loss in THP-1 monocytes – THP-1 cells, cytotoxicity control for Vif-APOBEC3G degradation inhibitor project, dose response (AID 1117359); type: functional; settings: THP-1
[2] = target: T1, Calpain-2 catalytic subunit (Sus scrofa, UniProt P43367); assay: m-calpain protease blockers, concentration series – biochemical, fluorogenic peptide substrate, dose response (AID 1420); type: functional
T1 sequence (P43367 whole entry): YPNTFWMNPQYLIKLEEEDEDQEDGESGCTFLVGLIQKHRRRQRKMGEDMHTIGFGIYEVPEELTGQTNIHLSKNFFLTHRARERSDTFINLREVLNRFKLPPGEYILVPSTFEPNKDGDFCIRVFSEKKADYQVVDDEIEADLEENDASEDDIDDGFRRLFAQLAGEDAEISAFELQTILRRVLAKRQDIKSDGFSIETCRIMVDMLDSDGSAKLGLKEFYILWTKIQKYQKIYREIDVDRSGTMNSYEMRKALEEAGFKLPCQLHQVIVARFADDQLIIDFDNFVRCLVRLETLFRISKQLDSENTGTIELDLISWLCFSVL

Vero = assay: viability of Vero cells under compound – cytotoxicity control for flavivirus capping enzyme inhibitors (AID 588742); type: functional; settings: Chlorocebus sabaeus
[3] = target: Mitogen-activated protein kinase 10 (Homo sapiens, UniProt P53779); assay: Dose response biochemical screening assay for inhibitors of c-Jun N-Terminal Kinase 3 (JNK3). [Related pubchem assays: 746 ]
[4] = target: T2, Oxysterols receptor LXR-beta (Homo sapiens, UniProt P55055); assay: LXR agonists, Gal4 luciferase reporter, dose response, counter-screen for ssDAF-12 agonist project, cell-based, luminescence, HEK293, S. stercoralis campaign (AID 720737); type: functional; settings: read-out: IC50 (the source's name)
T2 sequence (P55055 whole entry): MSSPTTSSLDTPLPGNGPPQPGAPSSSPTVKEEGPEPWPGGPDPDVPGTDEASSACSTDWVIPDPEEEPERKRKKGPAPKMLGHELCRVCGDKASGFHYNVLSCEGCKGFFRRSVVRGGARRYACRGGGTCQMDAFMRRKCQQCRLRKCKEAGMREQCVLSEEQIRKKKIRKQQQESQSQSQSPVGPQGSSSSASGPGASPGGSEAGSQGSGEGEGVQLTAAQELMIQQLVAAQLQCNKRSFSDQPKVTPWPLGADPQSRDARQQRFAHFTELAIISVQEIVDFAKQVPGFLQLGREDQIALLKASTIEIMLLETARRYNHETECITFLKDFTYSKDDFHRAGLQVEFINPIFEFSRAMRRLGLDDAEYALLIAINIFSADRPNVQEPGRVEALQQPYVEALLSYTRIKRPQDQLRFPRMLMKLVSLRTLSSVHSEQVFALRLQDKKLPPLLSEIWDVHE

[5] = Luminescence-based cell-based high throughput dose response assay to identify activators of the DAF-12 from the parasite S. stercoralis (ssDAF-12).; type: functional
[6] = target: T3, 1-phosphatidylinositol 4,5-bisphosphate phosphodiesterase beta-3 (Homo sapiens, UniProt Q01970); assay: Fluorescence-based biochemical high throughput dose response assay to identify inhibitors of phospholipase C isozymes (PLC-B3).
T3 sequence (Q01970 whole entry): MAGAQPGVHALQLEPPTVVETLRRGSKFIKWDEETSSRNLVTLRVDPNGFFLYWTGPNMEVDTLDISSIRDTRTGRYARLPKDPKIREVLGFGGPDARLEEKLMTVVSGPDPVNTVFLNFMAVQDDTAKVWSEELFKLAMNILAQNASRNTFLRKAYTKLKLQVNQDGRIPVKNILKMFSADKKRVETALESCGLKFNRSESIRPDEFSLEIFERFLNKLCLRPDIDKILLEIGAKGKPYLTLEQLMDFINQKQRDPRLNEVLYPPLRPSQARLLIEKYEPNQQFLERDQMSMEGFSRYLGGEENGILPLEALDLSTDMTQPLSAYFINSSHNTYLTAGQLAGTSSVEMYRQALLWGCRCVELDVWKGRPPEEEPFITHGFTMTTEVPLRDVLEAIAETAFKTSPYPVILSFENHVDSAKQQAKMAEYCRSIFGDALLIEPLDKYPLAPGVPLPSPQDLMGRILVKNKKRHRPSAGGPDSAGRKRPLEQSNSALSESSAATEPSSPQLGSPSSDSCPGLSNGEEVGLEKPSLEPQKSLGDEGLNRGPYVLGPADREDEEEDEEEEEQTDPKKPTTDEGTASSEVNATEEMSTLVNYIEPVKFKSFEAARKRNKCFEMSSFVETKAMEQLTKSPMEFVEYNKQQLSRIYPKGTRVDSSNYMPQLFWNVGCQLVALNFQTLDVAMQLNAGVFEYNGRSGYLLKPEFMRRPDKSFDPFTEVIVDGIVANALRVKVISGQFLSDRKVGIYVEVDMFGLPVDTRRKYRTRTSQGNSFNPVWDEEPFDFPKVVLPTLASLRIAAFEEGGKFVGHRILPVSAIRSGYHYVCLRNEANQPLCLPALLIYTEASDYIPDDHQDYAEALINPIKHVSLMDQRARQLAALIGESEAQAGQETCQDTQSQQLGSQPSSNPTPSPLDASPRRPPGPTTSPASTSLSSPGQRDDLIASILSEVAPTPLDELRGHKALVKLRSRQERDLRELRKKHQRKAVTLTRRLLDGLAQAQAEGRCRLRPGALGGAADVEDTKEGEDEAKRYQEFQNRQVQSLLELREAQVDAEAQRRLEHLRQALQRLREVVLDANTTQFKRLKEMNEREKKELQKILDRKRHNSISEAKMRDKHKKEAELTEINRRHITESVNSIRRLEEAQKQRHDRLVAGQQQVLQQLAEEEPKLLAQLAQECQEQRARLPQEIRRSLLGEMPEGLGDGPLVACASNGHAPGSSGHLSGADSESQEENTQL

[7] = target: T4, 1-phosphatidylinositol 4,5-bisphosphate phosphodiesterase gamma-1 (Homo sapiens, UniProt P19174); assay: Counterscreen for inhibitors of phospholipase C isozymes (PLC-B3): Fluorescence-based biochemical high throughput dose response assay to identify inhibitors of phospholipase C isozymes (PLC-gamma1).
T4 sequence (P19174 whole entry): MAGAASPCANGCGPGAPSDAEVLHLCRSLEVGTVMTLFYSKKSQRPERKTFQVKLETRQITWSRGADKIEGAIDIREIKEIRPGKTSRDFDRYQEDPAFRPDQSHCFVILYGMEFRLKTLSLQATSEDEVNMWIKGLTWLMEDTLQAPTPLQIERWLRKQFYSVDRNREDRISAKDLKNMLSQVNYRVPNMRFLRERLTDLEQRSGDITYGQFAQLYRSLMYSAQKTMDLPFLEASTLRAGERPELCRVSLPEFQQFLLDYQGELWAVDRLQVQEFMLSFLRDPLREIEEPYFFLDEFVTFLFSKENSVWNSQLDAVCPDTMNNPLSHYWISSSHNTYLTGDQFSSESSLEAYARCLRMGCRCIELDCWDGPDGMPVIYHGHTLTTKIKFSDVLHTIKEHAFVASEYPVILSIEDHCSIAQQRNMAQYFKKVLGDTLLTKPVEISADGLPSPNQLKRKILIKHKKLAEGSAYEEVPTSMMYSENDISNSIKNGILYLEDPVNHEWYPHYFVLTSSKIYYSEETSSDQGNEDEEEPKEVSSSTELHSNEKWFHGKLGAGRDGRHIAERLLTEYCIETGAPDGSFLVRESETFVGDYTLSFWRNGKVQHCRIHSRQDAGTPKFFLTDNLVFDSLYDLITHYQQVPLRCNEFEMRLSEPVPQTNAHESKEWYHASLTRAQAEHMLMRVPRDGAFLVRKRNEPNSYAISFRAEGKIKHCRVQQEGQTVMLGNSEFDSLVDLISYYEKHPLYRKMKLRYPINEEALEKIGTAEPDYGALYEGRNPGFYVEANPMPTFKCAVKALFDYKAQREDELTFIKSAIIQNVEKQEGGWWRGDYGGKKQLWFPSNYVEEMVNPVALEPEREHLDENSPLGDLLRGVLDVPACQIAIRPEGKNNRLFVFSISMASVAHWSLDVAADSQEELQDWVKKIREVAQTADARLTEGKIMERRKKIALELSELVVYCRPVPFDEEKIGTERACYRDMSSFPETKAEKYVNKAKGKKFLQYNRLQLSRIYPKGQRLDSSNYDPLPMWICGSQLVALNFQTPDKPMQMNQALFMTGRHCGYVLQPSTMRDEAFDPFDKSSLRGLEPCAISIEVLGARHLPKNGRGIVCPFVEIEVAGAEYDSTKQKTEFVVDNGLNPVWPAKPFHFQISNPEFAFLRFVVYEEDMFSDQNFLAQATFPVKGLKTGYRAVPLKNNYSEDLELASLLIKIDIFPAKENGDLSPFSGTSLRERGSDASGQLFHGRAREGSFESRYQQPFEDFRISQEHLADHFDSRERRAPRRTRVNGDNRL

[8] = target: Induced myeloid leukemia cell differentiation protein Mcl-1 (Homo sapiens, UniProt Q07820); type: functional
Large T antigen = Large T antigen (Simian virus 40, UniProt P03070); type: functional, Betapolyomavirus macacae;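 also: Confirmatory-stage PubChem screen for compounds that inhibit SV40 T antigen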
[9] = target: T5, Heat shock factor protein 1 (Mus musculus, UniProt P38532); assay: enhancement of HSF1-driven luciferase signal – cell-based, NIH3T3, luminescence, dose retest, confirmation (AID 435004); type: functional;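 also: stress induced by proteasome inhibitor MG132 added 30 min after compound; luciferase reporter driven by HSF1 response element in NIH3T3 cells; actives raise luminescence as potentiators of the MG132 stress response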
T5 sequence (P38532 whole entry): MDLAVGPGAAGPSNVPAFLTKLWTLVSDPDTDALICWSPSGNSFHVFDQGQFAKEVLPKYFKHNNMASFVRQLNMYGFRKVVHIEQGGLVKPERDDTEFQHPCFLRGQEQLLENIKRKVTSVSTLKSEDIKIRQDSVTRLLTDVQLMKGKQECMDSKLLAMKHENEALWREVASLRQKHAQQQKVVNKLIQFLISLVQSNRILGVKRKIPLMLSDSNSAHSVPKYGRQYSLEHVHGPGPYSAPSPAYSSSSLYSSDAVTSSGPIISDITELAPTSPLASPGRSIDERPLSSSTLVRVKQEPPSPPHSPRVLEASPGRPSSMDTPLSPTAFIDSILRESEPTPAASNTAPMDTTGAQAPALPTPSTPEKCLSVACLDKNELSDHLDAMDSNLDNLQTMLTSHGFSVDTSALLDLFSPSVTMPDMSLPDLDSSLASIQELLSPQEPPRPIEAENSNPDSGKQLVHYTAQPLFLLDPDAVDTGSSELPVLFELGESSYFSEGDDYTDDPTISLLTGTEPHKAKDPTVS

Kallikrein-7 = Kallikrein-7 (Homo sapiens, UniProt P49862); assay: Fluorescence Intensity-based biochemical primary high throughput dose response assay to identify activators of kallikrein-7 (K7) zymogen.
[10] = Luminescence Cell-Based Dose Confirmation HTS to Identify Inhibitors of Platelet Dense Granule Release. [Related pubchem assays: 1663 (Primary HTS), 1678 (Summary of Project)]; type: functional
[11] = target: Luciferin 4-monooxygenase (Photinus pyralis, UniProt P08659); assay: inhibition of purified Photinus pyralis luciferase – biochemical, luminescence, dose response (AID 1891)
[12] = target: T6, Rac GTPase-activating protein 1 (Homo sapiens, UniProt Q9H0H5); assay: blockers of MgcRacGAP-driven Rac1 GTP hydrolysis – biochemical, ADP Hunter fluorescence, primary and confirmatory, confirmation (AID 624330); type: functional
T6 sequence (Q9H0H5 whole entry): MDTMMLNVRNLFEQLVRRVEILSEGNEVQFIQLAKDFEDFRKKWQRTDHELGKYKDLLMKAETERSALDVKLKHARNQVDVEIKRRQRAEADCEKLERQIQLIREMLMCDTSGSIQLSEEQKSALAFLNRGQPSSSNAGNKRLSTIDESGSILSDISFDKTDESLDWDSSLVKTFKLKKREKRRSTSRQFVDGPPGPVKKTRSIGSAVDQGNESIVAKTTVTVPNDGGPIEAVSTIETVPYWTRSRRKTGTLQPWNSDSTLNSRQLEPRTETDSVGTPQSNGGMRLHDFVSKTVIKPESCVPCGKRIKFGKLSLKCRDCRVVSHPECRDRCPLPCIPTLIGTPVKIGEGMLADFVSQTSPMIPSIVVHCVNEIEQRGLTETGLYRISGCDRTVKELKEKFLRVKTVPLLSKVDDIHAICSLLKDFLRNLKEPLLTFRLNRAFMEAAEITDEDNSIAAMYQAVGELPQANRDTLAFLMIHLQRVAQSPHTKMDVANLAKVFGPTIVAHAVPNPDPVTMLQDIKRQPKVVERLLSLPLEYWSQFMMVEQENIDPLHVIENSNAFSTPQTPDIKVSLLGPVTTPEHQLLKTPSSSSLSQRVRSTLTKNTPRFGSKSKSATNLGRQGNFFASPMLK

Mitogen-activated protein kinase 10, sequence (P53779 whole entry, the tested form may be a part): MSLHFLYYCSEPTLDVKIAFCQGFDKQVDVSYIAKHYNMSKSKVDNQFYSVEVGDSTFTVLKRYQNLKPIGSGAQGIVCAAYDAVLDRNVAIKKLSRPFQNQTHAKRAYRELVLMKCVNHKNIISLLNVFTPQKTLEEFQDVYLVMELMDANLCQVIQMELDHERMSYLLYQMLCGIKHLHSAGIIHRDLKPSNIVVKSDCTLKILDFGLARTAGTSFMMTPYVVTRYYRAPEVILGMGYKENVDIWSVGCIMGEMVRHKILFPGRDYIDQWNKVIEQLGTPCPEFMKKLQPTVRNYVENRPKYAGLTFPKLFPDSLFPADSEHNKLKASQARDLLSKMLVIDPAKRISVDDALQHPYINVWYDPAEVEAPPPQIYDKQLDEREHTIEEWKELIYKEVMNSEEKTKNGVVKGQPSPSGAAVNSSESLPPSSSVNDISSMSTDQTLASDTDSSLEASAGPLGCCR
Kallikrein-7, sequence (P49862 whole entry): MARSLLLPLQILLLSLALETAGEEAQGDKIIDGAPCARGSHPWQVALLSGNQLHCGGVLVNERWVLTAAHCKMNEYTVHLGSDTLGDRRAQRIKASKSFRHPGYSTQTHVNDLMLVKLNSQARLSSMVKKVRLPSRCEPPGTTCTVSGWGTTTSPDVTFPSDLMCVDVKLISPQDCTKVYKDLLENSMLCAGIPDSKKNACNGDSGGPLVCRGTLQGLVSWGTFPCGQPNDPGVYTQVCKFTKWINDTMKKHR
Induced myeloid leukemia cell differentiation protein Mcl-1, sequence (Q07820 whole entry): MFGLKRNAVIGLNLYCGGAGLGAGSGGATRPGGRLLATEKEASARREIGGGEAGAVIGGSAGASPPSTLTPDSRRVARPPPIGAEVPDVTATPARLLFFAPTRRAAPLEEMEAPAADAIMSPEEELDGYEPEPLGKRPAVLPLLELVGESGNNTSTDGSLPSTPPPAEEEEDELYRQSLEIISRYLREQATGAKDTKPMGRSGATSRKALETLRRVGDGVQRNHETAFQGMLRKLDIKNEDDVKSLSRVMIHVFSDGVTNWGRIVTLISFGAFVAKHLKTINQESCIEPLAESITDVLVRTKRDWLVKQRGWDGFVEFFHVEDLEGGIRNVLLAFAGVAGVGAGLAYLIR
Large T antigen, sequence (P03070 whole entry): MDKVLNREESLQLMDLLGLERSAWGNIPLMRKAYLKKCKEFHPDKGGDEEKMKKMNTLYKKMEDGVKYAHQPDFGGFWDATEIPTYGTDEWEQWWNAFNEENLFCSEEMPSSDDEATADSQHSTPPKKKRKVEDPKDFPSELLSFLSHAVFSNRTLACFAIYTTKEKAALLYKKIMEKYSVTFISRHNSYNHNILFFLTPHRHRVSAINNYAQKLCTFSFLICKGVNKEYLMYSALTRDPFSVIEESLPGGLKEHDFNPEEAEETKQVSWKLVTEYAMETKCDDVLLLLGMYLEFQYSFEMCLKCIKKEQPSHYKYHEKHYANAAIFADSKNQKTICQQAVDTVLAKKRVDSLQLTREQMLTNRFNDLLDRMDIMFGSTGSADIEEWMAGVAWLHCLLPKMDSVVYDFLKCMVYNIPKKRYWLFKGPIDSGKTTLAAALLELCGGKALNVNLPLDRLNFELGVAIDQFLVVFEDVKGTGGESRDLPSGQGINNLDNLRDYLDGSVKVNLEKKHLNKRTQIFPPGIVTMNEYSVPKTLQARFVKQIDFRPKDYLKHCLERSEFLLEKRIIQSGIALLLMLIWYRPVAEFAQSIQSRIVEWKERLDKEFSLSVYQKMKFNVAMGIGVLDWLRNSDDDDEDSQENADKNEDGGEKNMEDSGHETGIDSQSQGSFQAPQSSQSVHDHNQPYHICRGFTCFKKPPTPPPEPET
Luciferin 4-monooxygenase, sequence (P08659 whole entry): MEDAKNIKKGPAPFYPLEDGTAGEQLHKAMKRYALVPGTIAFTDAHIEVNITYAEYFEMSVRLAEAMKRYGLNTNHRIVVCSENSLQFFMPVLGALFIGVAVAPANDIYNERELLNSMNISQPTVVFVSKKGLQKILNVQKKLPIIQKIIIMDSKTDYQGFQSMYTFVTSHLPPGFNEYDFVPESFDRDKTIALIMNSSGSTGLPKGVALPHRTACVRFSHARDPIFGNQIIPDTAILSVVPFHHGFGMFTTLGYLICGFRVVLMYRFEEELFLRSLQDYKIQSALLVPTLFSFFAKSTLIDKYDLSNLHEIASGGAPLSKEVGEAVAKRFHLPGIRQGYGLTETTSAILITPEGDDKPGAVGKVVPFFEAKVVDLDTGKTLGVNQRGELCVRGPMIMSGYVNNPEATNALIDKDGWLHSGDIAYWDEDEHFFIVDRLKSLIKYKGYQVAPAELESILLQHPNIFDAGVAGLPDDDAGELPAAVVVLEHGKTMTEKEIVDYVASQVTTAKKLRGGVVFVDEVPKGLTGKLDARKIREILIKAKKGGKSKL

SMILES: O=C(CN1C(=O)/C(=C\c2cccs2)SC1=S)Nc1cccc(C(=O)O)c1
- CC50 [1]: > 40 µM (active)

SMILES: COc1cc(CNc2ccc(O)cc2)cc(Br)c1OCc1ccccc1
- CC50 [1]: > 40 µM (active)
- IC50 [2]: 13 µM (not active)
- CC50 (Vero): > 40 µM (active)

SMILES: CC(C)NC(=O)c1nc2ccccc2s1
- EC50 [4]: > 67.5 µM (inactive)
- IC50 [5]: > 67.5 µM (inactive)

SMILES: O=C(Cc1cccs1)N1CCC(c2nc(O)c3nnn(Cc4ccccc4)c3n2)CC1
- IC50 [6]: > 122 µM (inactive)
- IC50 [7]: > 122 µM (inactive)

SMILES: O=C(OCC1O[C@@H](OC(=O)c2cc(O)c(O)c(O)c2)[C@@H](OC(=O)c2cc(O)c(O)c(O)c2)[C@@H](OC(=O)c2cc(O)c(O)c(O)c2)[C@@H]1OC(=O)c1cc(O)c(O)c(O)c1)c1cc(O)c(O)c(O)c1 (stereo not given in full)
- CC50 [1]: 20.6 µM (active)
- IC50 [8]: 4.54 µM (active)
- IC50 (Large T antigen): 4.51 µM (active)

SMILES: O=C(/C=C/c1ccccc1)c1c[nH]c2ccccc12
- EC50 [4]: > 67.4 µM (inactive)
- IC50 [5]: > 67.4 µM (inactive)

SMILES: COc1ccc(/C=N/Nc2nc3ccccc3s2)cc1O
- EC50 [10]: 5.38 µM (active)
- EC50 [11]: 0.947 µM (active)
- EC50 [4]: > 67.5 µM (inactive)
- IC50 [12]: 102 µM (active)
- IC50 [5]: > 67.5 µM (inactive)

More lines, now with the values ahead:

- IC50 [3]: 62.9 µM (not active)
SMILES: O=C(Nc1nncs1)c1ccc(N2C(=O)C3C4C=CC(C4)C3C2=O)cc1 (stereo not given)

- IC50 [3]: 72.6 µM (not active)
SMILES: Cn1c(C(=O)N2CCN(Cc3ccc4c(c3)OCO4)CC2)cc2c(=O)n(C)c3ccccc3c21

- EC50 [9]: 6.83 µM (active)
- IC50 [6]: > 123 µM (inactive)
- IC50 [7]: > 123 µM (inactive)
SMILES: O=[N+]([O-])c1ccc(Sc2ncccn2)c([N+](=O)[O-])c1

- EC50 (Kallikrein-7): > 69.6 µM (inactive)
SMILES: Cc1cc(=O)oc2cc(OCC(=O)N3CCOCC3)c(Cl)cc12

- EC50 (Kallikrein-7): 10.5 µM (inactive)
SMILES: COc1ccc(OC)c(/C=N/NC(=O)CN2CCSCC2)c1
